ChEMBL document CHEMBL3627674, “Discovery of wrightiadione as a novel template for the TrkA kinase inhibitors” (Bioorg Med Chem Lett, 2015)

Key:
[1] = target: Tyrosine-protein kinase ZAP-70 (Homo sapiens) (UniProt P43403); experiment: Inhibition of ZAP70 (unknown origin) assessed as remaining activity at 10 uM by high-throughput assay relative to control
[2] = target: Proto-oncogene tyrosine-protein kinase receptor Ret (Homo sapiens) (UniProt P07949); experiment: Inhibition of RET (unknown origin) assessed as remaining activity at 10 uM by high-throughput assay relative to control
[3] = target: MAP/microtubule affinity-regulating kinase 3 (Homo sapiens) (UniProt P27448); experiment: Inhibition of MARK3 (unknown origin) assessed as remaining activity at 10 uM by high-throughput assay relative to control
[4] = target: Bone morphogenetic protein receptor type-2 (Homo sapiens) (UniProt Q13873); experiment: Inhibition of BMPR2 (unknown origin) assessed as remaining activity at 10 uM by high-throughput assay relative to control
[5] = target: Cyclin-dependent kinase 7 (Homo sapiens) (UniProt P50613); experiment: Inhibition of CDK7 (unknown origin) assessed as remaining activity at 10 uM by high-throughput assay relative to control
[6] = target: Platelet-derived growth factor receptor beta (Homo sapiens) (UniProt P09619); experiment: Inhibition of PDGFRB (unknown origin) assessed as remaining activity at 10 uM by high-throughput assay relative to control
[7] = target: Fibroblast growth factor receptor 2 (Homo sapiens) (UniProt P21802); experiment: Inhibition of FGFR2 (unknown origin) assessed as remaining activity at 10 uM by high-throughput assay relative to control
[8] = target: Rho-associated protein kinase 2 (Homo sapiens) (UniProt O75116); experiment: Inhibition of ROCK2 (unknown origin) assessed as remaining activity at 10 uM by high-throughput assay relative to control
[9] = target: Tyrosine-protein kinase ABL1 (Homo sapiens) (UniProt P00519); experiment: Inhibition of ABL1 (unknown origin) assessed as remaining activity at 10 uM by high-throughput assay relative to control
[10] = target: Inhibitor of nuclear factor kappa-B kinase subunit alpha (Homo sapiens) (UniProt O15111); experiment: Inhibition of IKK-alpha (unknown origin) assessed as remaining activity at 10 uM by high-throughput assay relative to control
[11] = target: SRSF protein kinase 3 (Homo sapiens) (UniProt Q9UPE1); experiment: Inhibition of SRPK3 (unknown origin) assessed as remaining activity at 10 uM by high-throughput assay relative to control
[12] = target: RAF proto-oncogene serine/threonine-protein kinase (Homo sapiens) (UniProt P04049); experiment: Inhibition of RAF1 (unknown origin) assessed as remaining activity at 10 uM by high-throughput assay relative to control
[13] = system: Mast/stem cell growth factor receptor Kit (Homo sapiens), P10721 [D816V]; experiment: Inhibition of KIT D816V mutant (unknown origin) assessed as remaining activity at 10 uM by high-throughput assay relative to control
[14] = target: Casein kinase I isoform delta (Homo sapiens) (UniProt P48730); experiment: Inhibition of CSNK1D (unknown origin) assessed as remaining activity at 10 uM by high-throughput assay relative to control
[15] = target: Dual specificity mitogen-activated protein kinase kinase 1 (Homo sapiens) (UniProt Q02750); experiment: Inhibition of MEK1 (unknown origin) assessed as remaining activity at 10 uM by high-throughput assay relative to control
[16] = target: Glycogen synthase kinase-3 beta (Homo sapiens) (UniProt P49841); experiment: Inhibition of GSK3B (unknown origin) assessed as remaining activity at 10 uM by high-throughput assay relative to control
[17] = system: Tyrosine-protein kinase ABL1 (Homo sapiens), P00519 [T315I]; experiment: Inhibition of ABL1 T315I mutant phosphorylation (unknown origin) assessed as remaining activity at 10 uM by high-throughput assay relative to control
[18] = target: Fibroblast growth factor receptor 3 (Homo sapiens) (UniProt P22607); experiment: Inhibition of FGFR3 (unknown origin) assessed as remaining activity at 10 uM by high-throughput assay relative to control
[19] = target: Serine/threonine-protein kinase PLK3 (Homo sapiens, UniProt Q9H4B4); experiment: Inhibition of PLK3 (unknown origin) assessed as remaining activity at 10 uM by high-throughput assay relative to control
[20] = target: Serine/threonine-protein kinase PAK 4 (Homo sapiens) (UniProt O96013); experiment: Inhibition of PAK4 (unknown origin) assessed as remaining activity at 10 uM by high-throughput assay relative to control
[21] = target: Aurora kinase B (Homo sapiens) (UniProt Q96GD4); experiment: Inhibition of AURKB (unknown origin) assessed as remaining activity at 10 uM by high-throughput assay relative to control
[22] = target: Dual specificity mitogen-activated protein kinase kinase 2 (Homo sapiens) (UniProt P36507); experiment: Inhibition of MEK2 (unknown origin) assessed as remaining activity at 10 uM by high-throughput assay relative to control
[23] = target: Serine/threonine-protein kinase DCLK1 (Homo sapiens) (UniProt O15075); experiment: Inhibition of DCAMKL1 (unknown origin) assessed as remaining activity at 10 uM by high-throughput assay relative to control
[24] = target: MAP kinase-interacting serine/threonine-protein kinase 2 (Homo sapiens) (UniProt Q9HBH9); experiment: Inhibition of MKNK2 (unknown origin) assessed as remaining activity at 10 uM by high-throughput assay relative to control
[25] = target: Protein kinase C epsilon type (Homo sapiens) (UniProt Q02156); experiment: Inhibition of PRKCE (unknown origin) assessed as remaining activity at 10 uM by high-throughput assay relative to control
[26] = target: Serine/threonine-protein kinase RIO2 (Homo sapiens) (UniProt Q9BVS4); experiment: Inhibition of RIOK2 (unknown origin) assessed as remaining activity at 10 uM by high-throughput assay relative to control
[27] = target: Tyrosine-protein kinase JAK2 (Homo sapiens) (UniProt O60674); experiment: Inhibition of JAK2 JH1 catalytic domain (unknown origin) assessed as remaining activity at 10 uM by high-throughput assay relative to control
[28] = target: Tyrosine-protein kinase JAK3 (Homo sapiens) (UniProt P52333); experiment: Inhibition of JAK3 JH1 catalytic domain (unknown origin) assessed as remaining activity at 10 uM by high-throughput assay relative to control
[29] = target: Serine/threonine-protein kinase 32C (Homo sapiens) (UniProt Q86UX6); experiment: Inhibition of YANK3 (unknown origin) assessed as remaining activity at 10 uM by high-throughput assay relative to control
[30] = target: Atypical kinase COQ8A, mitochondrial (Homo sapiens) (UniProt Q8NI60); experiment: Inhibition of ADCK3 (unknown origin) assessed as remaining activity at 10 uM by high-throughput assay relative to control
[31] = target: Mitogen-activated protein kinase 9 (Homo sapiens) (UniProt P45984); experiment: Inhibition of JNK2 (unknown origin) assessed as remaining activity at 10 uM by high-throughput assay relative to control
[32] = target: Serine/threonine-protein kinase Chk1 (Homo sapiens) (UniProt O14757); experiment: Inhibition of CHEK1 (unknown origin) assessed as remaining activity at 10 uM by high-throughput assay relative to control

Serine/threonine-protein kinase RIO2 (Homo sapiens), sequence (Q9BVS4 whole entry, looked up, the tested form may be a part): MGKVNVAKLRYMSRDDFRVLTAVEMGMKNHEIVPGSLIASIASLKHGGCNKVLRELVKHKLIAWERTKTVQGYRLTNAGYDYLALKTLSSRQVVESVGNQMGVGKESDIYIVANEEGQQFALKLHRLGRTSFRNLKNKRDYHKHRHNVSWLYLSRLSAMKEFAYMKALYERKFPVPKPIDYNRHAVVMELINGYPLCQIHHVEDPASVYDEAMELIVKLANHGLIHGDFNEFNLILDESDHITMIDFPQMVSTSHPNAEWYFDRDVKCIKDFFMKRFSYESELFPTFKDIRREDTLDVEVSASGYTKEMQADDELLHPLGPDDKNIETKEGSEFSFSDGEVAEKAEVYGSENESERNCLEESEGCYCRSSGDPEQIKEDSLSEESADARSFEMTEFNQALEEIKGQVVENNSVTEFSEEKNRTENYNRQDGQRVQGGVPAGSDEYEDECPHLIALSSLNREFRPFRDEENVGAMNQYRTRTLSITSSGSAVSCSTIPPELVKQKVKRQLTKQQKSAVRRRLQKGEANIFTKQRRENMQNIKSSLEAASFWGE
Mast/stem cell growth factor receptor Kit (Homo sapiens), P10721 [D816V], sequence (P10721 whole entry D816V, canonical isoform): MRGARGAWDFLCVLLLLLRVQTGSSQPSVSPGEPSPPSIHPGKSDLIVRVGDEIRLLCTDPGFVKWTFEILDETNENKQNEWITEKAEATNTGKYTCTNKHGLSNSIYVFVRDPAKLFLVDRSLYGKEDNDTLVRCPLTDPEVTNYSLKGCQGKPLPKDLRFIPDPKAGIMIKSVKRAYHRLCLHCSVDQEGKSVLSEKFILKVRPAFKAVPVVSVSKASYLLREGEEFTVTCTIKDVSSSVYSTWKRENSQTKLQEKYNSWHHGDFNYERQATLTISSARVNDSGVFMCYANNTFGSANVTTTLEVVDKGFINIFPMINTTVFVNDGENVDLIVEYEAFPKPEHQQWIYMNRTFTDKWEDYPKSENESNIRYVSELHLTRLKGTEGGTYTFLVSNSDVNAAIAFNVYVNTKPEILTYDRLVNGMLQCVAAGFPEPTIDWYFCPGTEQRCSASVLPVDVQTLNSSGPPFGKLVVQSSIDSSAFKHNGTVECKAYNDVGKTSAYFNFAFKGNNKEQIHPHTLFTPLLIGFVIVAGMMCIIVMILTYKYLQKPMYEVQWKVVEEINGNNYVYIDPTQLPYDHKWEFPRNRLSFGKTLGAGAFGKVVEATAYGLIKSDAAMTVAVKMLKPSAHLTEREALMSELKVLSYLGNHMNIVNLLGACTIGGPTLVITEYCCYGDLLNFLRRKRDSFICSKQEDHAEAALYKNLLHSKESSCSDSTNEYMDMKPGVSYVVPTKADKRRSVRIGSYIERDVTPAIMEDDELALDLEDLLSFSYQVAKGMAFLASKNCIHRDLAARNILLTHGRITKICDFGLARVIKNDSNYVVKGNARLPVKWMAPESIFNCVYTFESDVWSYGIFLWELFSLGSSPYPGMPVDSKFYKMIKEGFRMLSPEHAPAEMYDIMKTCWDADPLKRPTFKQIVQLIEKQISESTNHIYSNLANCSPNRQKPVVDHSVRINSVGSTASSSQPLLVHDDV
Bone morphogenetic protein receptor type-2 (Homo sapiens), sequence (Q13873 whole entry): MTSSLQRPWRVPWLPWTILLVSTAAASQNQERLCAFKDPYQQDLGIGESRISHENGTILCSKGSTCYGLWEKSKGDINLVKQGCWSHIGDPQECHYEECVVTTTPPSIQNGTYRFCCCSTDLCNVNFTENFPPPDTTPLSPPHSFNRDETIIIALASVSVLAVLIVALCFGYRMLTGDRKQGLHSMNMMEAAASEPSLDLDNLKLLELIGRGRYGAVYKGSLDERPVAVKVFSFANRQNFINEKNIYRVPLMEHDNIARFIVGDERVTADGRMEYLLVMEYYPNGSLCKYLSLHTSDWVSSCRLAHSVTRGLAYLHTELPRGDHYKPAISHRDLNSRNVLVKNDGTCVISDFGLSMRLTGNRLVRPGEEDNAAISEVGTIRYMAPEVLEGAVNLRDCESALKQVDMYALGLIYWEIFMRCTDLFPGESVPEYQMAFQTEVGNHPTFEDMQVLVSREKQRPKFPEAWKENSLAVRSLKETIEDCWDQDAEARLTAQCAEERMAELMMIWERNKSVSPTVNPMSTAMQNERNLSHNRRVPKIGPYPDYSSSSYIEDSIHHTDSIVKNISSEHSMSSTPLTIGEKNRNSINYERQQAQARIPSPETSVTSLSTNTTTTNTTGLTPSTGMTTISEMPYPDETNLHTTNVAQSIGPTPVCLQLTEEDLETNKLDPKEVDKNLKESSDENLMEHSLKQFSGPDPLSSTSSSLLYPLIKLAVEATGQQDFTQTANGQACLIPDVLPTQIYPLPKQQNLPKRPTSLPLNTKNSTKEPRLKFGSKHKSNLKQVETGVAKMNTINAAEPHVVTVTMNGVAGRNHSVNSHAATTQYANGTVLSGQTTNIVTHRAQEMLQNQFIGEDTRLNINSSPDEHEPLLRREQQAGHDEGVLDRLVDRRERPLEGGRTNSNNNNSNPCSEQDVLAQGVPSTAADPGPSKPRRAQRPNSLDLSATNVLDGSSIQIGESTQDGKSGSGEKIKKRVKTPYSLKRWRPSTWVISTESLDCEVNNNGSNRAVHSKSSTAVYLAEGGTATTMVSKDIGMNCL
Fibroblast growth factor receptor 3 (Homo sapiens), sequence (P22607 23-806 limits assumed): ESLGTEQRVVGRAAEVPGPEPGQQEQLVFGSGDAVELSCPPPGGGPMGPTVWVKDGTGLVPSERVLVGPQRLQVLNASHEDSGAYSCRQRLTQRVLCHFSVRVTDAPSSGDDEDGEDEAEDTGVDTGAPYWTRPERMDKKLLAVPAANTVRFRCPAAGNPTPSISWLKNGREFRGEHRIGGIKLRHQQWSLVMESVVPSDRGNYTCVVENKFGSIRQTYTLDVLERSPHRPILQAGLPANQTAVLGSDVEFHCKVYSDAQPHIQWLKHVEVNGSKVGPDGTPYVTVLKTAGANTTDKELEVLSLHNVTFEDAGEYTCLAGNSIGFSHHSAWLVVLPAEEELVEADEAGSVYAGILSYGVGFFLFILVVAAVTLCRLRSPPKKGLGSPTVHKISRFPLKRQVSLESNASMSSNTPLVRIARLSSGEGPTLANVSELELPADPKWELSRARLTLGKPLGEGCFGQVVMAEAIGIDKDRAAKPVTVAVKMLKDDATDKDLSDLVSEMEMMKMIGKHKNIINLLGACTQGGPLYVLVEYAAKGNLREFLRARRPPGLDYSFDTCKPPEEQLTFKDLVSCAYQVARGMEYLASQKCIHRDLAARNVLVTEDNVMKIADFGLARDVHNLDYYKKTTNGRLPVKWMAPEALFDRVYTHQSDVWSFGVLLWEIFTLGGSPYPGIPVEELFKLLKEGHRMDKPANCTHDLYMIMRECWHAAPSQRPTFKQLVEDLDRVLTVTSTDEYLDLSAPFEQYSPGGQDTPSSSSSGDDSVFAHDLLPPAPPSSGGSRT
Platelet-derived growth factor receptor beta (Homo sapiens), sequence (P09619 whole entry): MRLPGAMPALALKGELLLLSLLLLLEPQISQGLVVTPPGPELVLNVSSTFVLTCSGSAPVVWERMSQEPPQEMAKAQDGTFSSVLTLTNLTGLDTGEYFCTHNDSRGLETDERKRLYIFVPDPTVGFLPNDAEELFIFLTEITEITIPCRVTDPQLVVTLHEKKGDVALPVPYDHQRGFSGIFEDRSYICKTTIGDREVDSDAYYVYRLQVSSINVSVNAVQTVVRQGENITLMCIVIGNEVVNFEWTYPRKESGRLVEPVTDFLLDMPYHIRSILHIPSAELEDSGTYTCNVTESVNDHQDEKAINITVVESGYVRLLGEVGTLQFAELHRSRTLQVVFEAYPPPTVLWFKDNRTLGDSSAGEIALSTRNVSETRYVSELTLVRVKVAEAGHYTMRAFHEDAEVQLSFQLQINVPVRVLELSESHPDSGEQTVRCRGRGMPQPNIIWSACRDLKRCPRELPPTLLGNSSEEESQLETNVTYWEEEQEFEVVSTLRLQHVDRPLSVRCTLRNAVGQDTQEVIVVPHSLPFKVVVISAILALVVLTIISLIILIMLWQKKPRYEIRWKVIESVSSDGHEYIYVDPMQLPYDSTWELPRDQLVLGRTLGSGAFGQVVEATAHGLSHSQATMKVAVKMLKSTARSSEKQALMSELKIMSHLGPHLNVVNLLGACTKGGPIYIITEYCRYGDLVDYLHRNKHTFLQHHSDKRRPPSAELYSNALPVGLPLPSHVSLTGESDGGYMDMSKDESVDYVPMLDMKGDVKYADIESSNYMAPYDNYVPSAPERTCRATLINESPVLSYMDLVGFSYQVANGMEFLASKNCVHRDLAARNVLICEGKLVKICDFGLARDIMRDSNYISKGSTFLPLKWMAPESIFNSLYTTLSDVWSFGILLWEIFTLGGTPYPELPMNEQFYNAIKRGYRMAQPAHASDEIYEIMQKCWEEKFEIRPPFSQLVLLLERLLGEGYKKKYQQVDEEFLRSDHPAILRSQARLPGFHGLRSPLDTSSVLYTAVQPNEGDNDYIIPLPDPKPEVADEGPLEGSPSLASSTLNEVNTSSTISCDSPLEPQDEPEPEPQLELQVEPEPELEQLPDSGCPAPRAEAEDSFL
Cyclin-dependent kinase 7 (Homo sapiens), sequence (P50613 whole entry): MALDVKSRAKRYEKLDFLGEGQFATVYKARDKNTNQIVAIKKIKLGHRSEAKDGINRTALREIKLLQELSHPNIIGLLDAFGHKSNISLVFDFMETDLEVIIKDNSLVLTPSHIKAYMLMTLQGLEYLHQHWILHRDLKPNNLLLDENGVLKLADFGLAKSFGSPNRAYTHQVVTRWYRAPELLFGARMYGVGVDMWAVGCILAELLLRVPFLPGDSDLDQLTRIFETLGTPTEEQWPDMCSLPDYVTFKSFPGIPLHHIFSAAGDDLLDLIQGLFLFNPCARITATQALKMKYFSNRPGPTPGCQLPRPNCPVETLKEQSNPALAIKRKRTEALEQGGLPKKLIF

O=C1c2ccccc2-c2c1oc1ccccc1c2=O
Activity [1]: 77% | Activity [2]: 74% | Activity [3]: 90% | Activity [4]: 53% | Activity [5]: 59% | Activity [6]: 45% | Activity [7]: 56% | Activity [8]: 79% | Activity [9]: 95% | Activity [10]: 65% | Activity [11]: 73% | Activity [12]: 92% | Activity [13]: 58% | Activity [14]: 30% | Activity [15]: 85% | Activity [16]: 77% | Activity [17]: 61% | Activity [18]: 54% | Activity [19]: 8.3% | Activity [20]: 98% | Activity [21]: 66% | Activity [22]: 71% | Activity [23]: 78% | Activity [24]: 59% | Activity [25]: 96% | Activity [26]: 70% | Activity [27]: 42% | Activity [28]: 61% | Activity [29]: 78% | Activity [30]: 73% | Activity [31]: 49% | Activity [32]: 90%
